Measurements from patent US20210386761A1, “COMPOSITION FOR PREVENTING OR TREATING INFLAMMATORY BOWEL DISEASE, CONTAINING, AS ACTIVE INGREDIENT, TAURODEOXYCHOLIC ACID OR PHARMACEUTICALLY ACCEPTABLE SALT THEREOF” (SHAPERON INC., priority 2019, published 2021).

Tests used:
IL-1β = assay: Pro-inflammatory cytokine ELISA of colon tissue, IL-1β; type: in vivo, mouse; settings: for IL-1β in the colon tissue: Day 7
Experimental: (§1) In order to evaluate the clinical symptoms-improving efficacy in comparison with those by clinical prescription drugs, inflammatory bowel disease was induced by 7-day or repeated administration of 3% or 2.5% DSS solution, and tofacitinib 10 mg/kg, 5-ASA 100 mg/kg or 200 mg/kg, prednisolone 1 mg/kg, and TDCA 2.5 mg/kg were administered one time a day from the start date of DSS administration. From the start date of DSS administration, TDCA 2.5 mg/kg was administered one time a day (QD), two times a day (BID), and three times a day (TID).
A colon was obtained from a mouse which had been subjected to an experiment by the same method as that described in <Example 2>, the peripheral colon was cut into 2 cm in length and the weight was recorded. Next, the colon was chopped into 1 mm pieces and frozen on ice, treated with 500 μl of cold DPBS containing protease inhibitor (Roche, 11836170001, Basel, Switzerland), and homogenized for 10 to 20 seconds using an electric homogenizer (IKA T10 Basic, Wilmington, SE, USA). The homogenate was centrifuged at 4° C. for 10 minutes at 12,000×g to obtain a supernatant. ELISA analysis was performed using the obtained supernatant, IL-6 DuoSet ELISA kit (R & D systems, USA), IL-1β DuoSet ELISA kit (R & D systems, USA), and TNF-α DuoSet ELISA kit (R & D systems, USA) according to the manufacturer's procedure to confirm the production of pro-inflammatory cytokines.
(§2) Specifically, female C57BL/6 mice were fed with a 2% DSS solution together with drinking water for 7 days from Day 0 of the experiment by the same method as that described in <Example 1>, DPBS or 5 mg/kg TDCA was administered to the mice by oral gavage one time a day for 6 days from Day 1 of the experiment, and the body weight and DAI were measured daily. As a control, mice freely fed with drinking water were used. Next, the mice were sacrificed on Day 7 of the experiment by the same method as that described in <Example 3>, and inflammatory cell and proinflammatory cytokine analysis was performed.
as §2, with “oral gavage from Day” for “oral gavage one time a day for 6 days from Day”, “1 of DSS administration or 2 days before DSS administration, and the” for “1 of the experiment, and the”, “3>, and the inflammatory cell” for “3>, and inflammatory cell”

[1] = system: inflammasome activity of bone marrow-derived macrophages; assay: Inhibition of IL-1β secretion of bone marrow-derived macrophages (LPS then ATP or BzATP); type: cell-based; settings: Mus musculus, Macrophage, LPS 10 ng/ml 3 h, TDCA 1 h, ATP 0.5 mM or BzATP 0.3 mM 1 h, FIGS. 10A and 10B
Experimental: Bone marrow was collected from a DPBS-administered mouse which had been subjected to an experiment by the same method as that described in <Example 2>, induced to differentiate into macrophages, then pretreated with LPS (10 ng/ml) for 3 hours so as to be 4×10^4 cells in a 96-well plate, treated with TDCA at various concentrations for 1 hour, then treated with ATP (0.5 mM) or BzATP (0.3 mM) for an additional 1 hour, and cultured, and the amount of IL-1β in the cell culture was measured and analyzed using an ELISA kit (R & D systems, USA) according to the manufacturer's procedure.

[2] = system: TGR5 knockout (TGR5−/−) inflammatory bowel disease-induced mouse model; assay: Clinical symptom analysis in DSS-induced TGR5 knock-out (TGR5−/−) mouse model; type: in vivo; settings: TGR5−/− mice, 2% DSS 10 days
Experimental: (§3) The disease activity indexes (DAI) including body weight, body weight loss, stool consistency, and bloody stool were measured daily. DAI was scored according to the following [Table 1].
Specifically, C57BL/6-Gpbar1^tm1(KOMP)Vlcg mice (TGR5 KO, KOMP Repository, The Knockout Mouse Project, University of California, Davis, Calif.) were used as TGR5 knockout (TGR5^−/−) female C57BL/6 mice. The TGR5^−/− female C57BL/6 mice or TGR5 normal (WT) female C57BL/6 mice were fed with a 2% DSS solution or DPBS together with drinking water for 10 days from Day 0 of the experiment by the same method as that described in <Example 1>. DPBS or 5 mg/kg TDCA was administered to the mice by oral gavage one time a day for 11 days from Day 1 of the experiment, and the body weight and DAI were measured daily. As a control, mice freely fed with drinking water were used.

[3] = system: inflammatory bowel disease induced by 3% DSS administration for 7 days; assay: 3% DSS 7-day inflammatory bowel disease model, comparison with clinical prescription drugs; type: in vivo, mouse; settings: 3% DSS 7 days
Experimental: as §1, §3
After the experiment was completed, the mice were euthanized with CO2 and the bowels were excised. Next, the bowels were put in cold 1×DPBS and the remaining mesenteric adipose tissue was isolated. At this time, the colon length was measured. Next, the tail end of the colon was opened and wound up with scissors to obtain colon tissue. The obtained colon tissue was fixed in 10% neutral buffered formalin (Sigma-Aldrich, HT501128-4L, St. Louis, Mo., USA) at room temperature for 48 hours and then treated in a tissue processor (Excelsior ES, Thermo scientific, Waltham, Mass., USA) for 12 hours. The processed tissue was sectioned and paraffinized using a microtome (Microm, HM 340E, Thermo Scientific, Waltham, Mass., USA) and an embedding system (HistoStar, Thermo Scientific, Waltham, Mass., USA). Next, the processed tissue was stained with hematoxylin and eosin, and visualized under an optical microscope (Motic, BA310, Redding, Calif., USA) to confirm the histopathological state, and the histopathological state was scored to histological score according to the criteria in the following [Table 2].

C[C@H](CCC(=O)NCCS(=O)(=O)O)[C@H]1CC[C@H]2[C@@H]3CC[C@@H]4C[C@H](O)CC[C@]4(C)[C@H]3C[C@H](O)[C@]12C [TDCA, sodium taurodeoxycholic acid]
IL-1β in the colon tissue (IL-1β; 2% DSS 7 days, 5 mg/kg TDCA oral gavage, FIG. 3B): decreased | concentration of IL-1β in the colon tissue, compared with clinical prescription drugs (IL-1β; 3% DSS 7 days, TDCA 2.5 mg/kg vs tofacitinib 10 mg/kg and 5-ASA 100 mg/kg): more effectively suppressed the concentration of IL-1β than tofacitinib 10 mg/kg and 5-ASA 100 mg/kg | IL-1β in the colon tissue (IL-1β; DSS+TDCA group: 5 mg/kg TDCA from Day 1 of DSS, FIG. 7B): decreased | IL-1β in the colon tissue (IL-1β; DSS+preTDCA group: 5 mg/kg TDCA from 2 days before DSS, FIG. 7B): decreased | IC50 [1]: 60 to 90 nM | initial body weight lost on Day 10 ([2]; 5 mg/kg TDCA oral gavage one time a day, FIG. 8A): about 27% | DAI change ([2]; 5 mg/kg TDCA, FIG. 8B): DAI was high | survival rate ([2]; 5 mg/kg TDCA, FIG. 8C): 60% | body weight change, compared with clinical prescription drugs ([3]; TDCA 2.5 mg/kg one time a day vs tofacitinib 10 mg/kg and 5-ASA 100 mg/kg, FIG. 9A): effect equivalent to those by tofacitinib 10 mg/kg and 5-ASA 100 mg/kg | DAI change, compared with clinical prescription drugs ([3]; TDCA 2.5 mg/kg one time a day vs tofacitinib 10 mg/kg and 5-ASA 100 mg/kg, FIG. 9B): effect equivalent to those by tofacitinib 10 mg/kg and 5-ASA 100 mg/kg | colon length, compared with clinical prescription drugs ([3]; TDCA 2.5 mg/kg vs tofacitinib 10 mg/kg and 5-ASA 100 mg/kg, FIG. 9C): effect equivalent to those by tofacitinib 10 mg/kg and 5-ASA 100 mg/kg | histological lesion index, compared with clinical prescription drugs ([3]; TDCA 2.5 mg/kg vs tofacitinib 10 mg/kg and 5-ASA 100 mg/kg, FIG. 9D): effect equivalent to those by tofacitinib 10 mg/kg and 5-ASA 100 mg/kg
